The target of one assay is T1, K-Ras G12D (Homo sapiens, UniProt P01116, G12D).
T1 construct: made in house; host or cells: E. coli BL21 (DE3)
As to the kind of experiment: HTRF resonance energy transfer assay, K-Ras G12D / SOS1 interaction. The following applies: HTRF assay of Example 5; read-out: IC50 against K-Ras G12D. Type of assay: biochemical. The method in brief: (§1)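 Buffer about 5 mM HEPES pH 7.4 with ~150 mM NaCl, ~1 mM DTT, 0.05% BSA, 0.0025% (v/v) Igepal. Protein constructs used at molarity matching the IC50 range studied (e.g. ~500 nM). FRET between tagged K-Ras and hSOS1 measured after short incubation.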
For orientation: Time-resolved FRET reads energy transfer from a long-lived donor to a nearby acceptor.

Another assay deals with T2, K-Ras G12S (Homo sapiens, UniProt P01116, G12S).
T2 construct: made in house; host or cells: E. coli BL21 (DE3)
T2 sequence (P01116 1-188 isoform P01116-2 G12S): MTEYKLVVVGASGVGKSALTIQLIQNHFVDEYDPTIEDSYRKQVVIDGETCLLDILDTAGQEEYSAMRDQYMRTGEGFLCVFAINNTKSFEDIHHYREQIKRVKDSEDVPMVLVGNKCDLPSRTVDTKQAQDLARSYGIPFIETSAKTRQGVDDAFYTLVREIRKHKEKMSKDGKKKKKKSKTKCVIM
Put plainly: HTRF resonance energy transfer assay, K-Ras G12S / SOS1 interaction. The class given is biochemical. The following applies: HTRF assay of Example 5; read-out: IC50 against K-Ras G12S. The method in brief:
as §1

Another assay concerns the target T3, K-Ras G12V (Homo sapiens, UniProt P01116, G12V).
T3 construct: made in house; host or cells: E. coli BL21 (DE3)
As to the kind of experiment: HTRF resonance energy transfer assay, K-Ras G12V / SOS1 interaction. The class given is biochemical. The note with it: HTRF assay of Example 5; read-out: IC50 against K-Ras G12V. The method in brief: as §1

Another assay has as its target T4, K-Ras WT (Homo sapiens, UniProt P01116).
T4 construct: made in house; host or cells: E. coli BL21 (DE3)
As to the kind of experiment: HTRF resonance energy transfer assay, K-Ras WT / SOS1 interaction. The class given is biochemical. The note with it: HTRF assay of Example 5; read-out: IC50 against K-Ras WT. The method in brief: as §1

Another assay has as its system GP2D cells. As to the kind of experiment: Ras cellular assay, growth of cells with K-Ras G12D mutation (CellTiter-Glo). Type of assay: cell-based. The following applies: cell growth, Example 9, G12D mutation, read-out: IC50 against GP2D cells.
The next assay relates to A549 cells. Put plainly: Ras cellular assay, growth of cells with K-Ras G12S mutation (CellTiter-Glo). The class given is cell-based. The following applies: Homo sapiens, cell growth, Example 9, G12S mutation, read-out: IC50 against A549 cells. In a few lines:
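Growth inhibition IC50 values come from four-parameter fits of CellTiter-Glo luminescence, read about 6 days after compound addition. G12S-mutant A549 cells (e.g. 800/well, RPMI-1640 + 10% heat-inactivated FBS) were plated in tissue-culture-treated or ultra-low-attachment 384-well format. Dosing began the following day with serial dilutions, e.g. 10 points, 3-fold.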
A general note: ATP-based viability assays read luminescence as a measure of living cells.

The test system of another assay is SW620 cells. As to the kind of experiment: Ras cellular assay, growth of cells with K-Ras G12V mutation (CellTiter-Glo). The class given is cell-based. The note with it: Homo sapiens, SW-620; cell growth, Example 9, G12V mutation; read-out: IC50 against SW620 cells. The method in brief: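 IC50 values came from a four-parameter fit of CellTiter-Glo viability, read roughly 6 days after dosing with e.g. a 10-point threefold dilution series. G12V-mutant SW620 cells (e.g. 800 per well) had been plated the previous day in RPMI-1640/10% heat-inactivated FBS, on tissue culture-treated or ultra-low attachment plates.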

T1 sequence (P01116 1-188 isoform P01116-2 G12D): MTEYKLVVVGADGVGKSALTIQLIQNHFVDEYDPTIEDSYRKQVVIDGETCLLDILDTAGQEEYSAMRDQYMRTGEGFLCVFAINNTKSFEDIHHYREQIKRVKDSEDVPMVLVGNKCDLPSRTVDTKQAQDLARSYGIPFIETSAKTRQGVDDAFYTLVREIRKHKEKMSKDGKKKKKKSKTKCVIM
T3 sequence (P01116 1-188 isoform P01116-2 G12V): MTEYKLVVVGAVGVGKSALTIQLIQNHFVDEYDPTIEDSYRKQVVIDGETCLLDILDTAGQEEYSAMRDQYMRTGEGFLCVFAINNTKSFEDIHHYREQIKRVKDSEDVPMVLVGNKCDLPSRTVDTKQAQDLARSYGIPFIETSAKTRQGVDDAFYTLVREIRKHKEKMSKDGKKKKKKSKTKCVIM
T4 sequence (P01116 1-188 isoform P01116-2): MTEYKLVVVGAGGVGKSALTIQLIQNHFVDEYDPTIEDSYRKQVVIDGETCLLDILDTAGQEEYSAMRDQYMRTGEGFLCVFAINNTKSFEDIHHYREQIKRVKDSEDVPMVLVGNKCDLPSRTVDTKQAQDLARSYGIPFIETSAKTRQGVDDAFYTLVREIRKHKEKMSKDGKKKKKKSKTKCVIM

What is called IC50 is the concentration that gives 50% inhibition. On to `CN1CCC(N2CCOc3c(Cl)c(-c4ccc(F)c5sc(N)c(C#N)c45)c(F)c4nc(OC[C@@]56CCCN5C[C@H](F)C6)nc2c34)C1=O` (stereo partly drawn) [Compound 624, 2-amino-4-(8-chloro-10-fluoro-2-(((2R,7aS)-2-fluorotetrahydro-1H-pyrrolizin-7a(5H)-yl)methoxy)-4-(1-methyl-2-oxopyrrolidin-3-yl)-5,6-dihydro-4H-[1,4]oxazepino[5,6,7-de]quinazolin-9-yl)-7-fluorobenzo[b]thiophene-3-carbonitrile], for which the IC50 is less than 100 nM at K-Ras G12D; less than 100 nM at K-Ras G12S; less than 100 nM on K-Ras G12V; less than 100 nM on K-Ras WT; less than 500 nM in the assay with GP2D cells; less than 5000 nM in the assay on A549 cells. In addition, the IC50 in the assay on SW620 cells is less than 5000 nM.
`N#Cc1c(N)sc2c(F)ccc(-c3c(Cl)c4c5c(nc(OC[C@@]67CCCN6C[C@H](F)C7)nc5c3F)N(C3CCOC3)CC(CF)O4)c12` (stereo partly drawn) [Compound 628, 2-amino-4-(8-chloro-10-fluoro-6-(fluoromethyl)-2-(((2R,7aS)-2-fluorotetrahydro-1H-pyrrolizin-7a(5H)-yl)methoxy)-4-(tetrahydrofuran-3-yl)-5,6-dihydro-4H-[1,4]oxazepino[5,6,7-de]quinazolin-9-yl)-7-fluorobenzo[b]thiophene-3-carbonitrile]: the 50% inhibitory concentration (IC50) on K-Ras G12D was less than 100 nM; at K-Ras G12S, less than 100 nM; at K-Ras G12V it was less than 100 nM; on K-Ras WT it was less than 100 nM; in the assay on GP2D cells it was less than 500 nM; with A549 cells, less than 5000 nM. Also, the half-inhibitory concentration (IC50) in the assay on SW620 cells was less than 5000 nM.
On to `CNC(=O)C1CCC(N2CCOc3c(Cl)c(-c4ccc(F)c5sc(N)c(C#N)c45)c(F)c4nc(OC[C@@]56CCCN5C[C@H](F)C6)nc2c34)C1` (stereo partly drawn) [Compound 633, 3-(9-(2-amino-3-cyano-7-fluorobenzo[b]thiophen-4-yl)-8-chloro-10-fluoro-2-(((2R,7aS)-2-fluorotetrahydro-1H-pyrrolizin-7a(5H)-yl)methoxy)-5,6-dihydro-4H-[1,4]oxazepino[5,6,7-de]quinazolin-4-yl)-N-methylcyclopentane-1-carboxamide], for which the IC50 at K-Ras G12D is less than 100 nM; at K-Ras G12S, less than 100 nM; on K-Ras G12V, less than 100 nM; on K-Ras WT it was less than 100 nM; in the assay on GP2D cells, less than 500 nM; with A549 cells it was less than 5000 nM. Further, in the assay on SW620 cells, the IC50 is less than 5000 nM.
With `Cn1ncc(C#N)c1CN1CCOc2c(Cl)c(-c3ccc(F)c4sc(N)c(C#N)c34)c(F)c3nc(OC[C@@]45CCCN4C[C@H](F)C5)nc1c23` [Compound 641, 5-((9-(2-amino-3-cyano-7-fluorobenzo[b]thiophen-4-yl)-8-chloro-10-fluoro-2-(((2R,7aS)-2-fluorotetrahydro-1H-pyrrolizin-7a(5H)-yl)methoxy)-5,6-dihydro-4H-[1,4]oxazepino[5,6,7-de]quinazolin-4-yl)methyl)-1-methyl-1H-pyrazole-4-carbonitrile], the IC50 at K-Ras G12D was less than 100 nM; at K-Ras G12S, less than 100 nM; at K-Ras G12V, less than 100 nM; at K-Ras WT, less than 100 nM; in the assay on GP2D cells, less than 500 nM; with A549 cells, less than 5000 nM. Also, the IC50 in the assay with SW620 cells is less than 5000 nM.
As to `N#CCCN1CCOc2c(Cl)c(-c3ccc(F)c4sc(N)c(C#N)c34)c(F)c3nc(OC[C@@]45CCCN4C[C@H](F)C5)nc1c23` [Compound 648, 2-amino-4-(8-chloro-4-(2-cyanoethyl)-10-fluoro-2-(((2R,7aS)-2-fluorotetrahydro-1H-pyrrolizin-7a(5H)-yl)methoxy)-5,6-dihydro-4H-[1,4]oxazepino[5,6,7-de]quinazolin-9-yl)-7-fluorobenzo[b]thiophene-3-carbonitrile], the half-maximal inhibitory concentration (IC50) at K-Ras G12D was less than 100 nM; at K-Ras G12S it was less than 100 nM; at K-Ras G12V it was less than 100 nM; on K-Ras WT, less than 100 nM; in the assay with GP2D cells, less than 500 nM; in the assay on A549 cells, less than 5000 nM. In addition, in the assay with SW620 cells, the IC50 was less than 5000 nM.
`N#Cc1c(N)sc2c(F)ccc(-c3c(Cl)c4c5c(nc(OC[C@@]67CCCN6C[C@H](F)C7)nc5c3F)N(C3CCN(C(=O)C(F)F)C3)CCO4)c12` (stereo partly drawn) [Compound 649, 2-amino-4-(8-chloro-4-(1-(2,2-difluoroacetyl)pyrrolidin-3-yl)-10-fluoro-2-(((2R,7aS)-2-fluorotetrahydro-1H-pyrrolizin-7a(5H)-yl)methoxy)-5,6-dihydro-4H-[1,4]oxazepino[5,6,7-de]quinazolin-9-yl)-7-fluorobenzo[b]thiophene-3-carbonitrile]: the half-maximal inhibitory concentration (IC50) at K-Ras G12D is less than 100 nM; at K-Ras G12S, less than 100 nM; on K-Ras G12V, less than 100 nM; at K-Ras WT, less than 100 nM; in the assay with GP2D cells it was less than 500 nM; with A549 cells, less than 5000 nM. The IC50 with SW620 cells was less than 5000 nM.
As to `N#Cc1c(N)sc2c(F)ccc(-c3c(Cl)c4c5c(nc(OC[C@@]67CCCN6C[C@H](F)C7)nc5c3F)N(C3C5CC3N(C=O)C5)CCO4)c12` (stereo partly drawn) [Compound 654, 2-amino-4-(8-chloro-10-fluoro-2-(((2R,7aS)-2-fluorotetrahydro-1H-pyrrolizin-7a(5H)-yl)methoxy)-4-(2-formyl-2-azabicyclo[2.1.1]hexan-5-yl)-5,6-dihydro-4H-[1,4]oxazepino[5,6,7-de]quinazolin-9-yl)-7-fluorobenzo[b]thiophene-3-carbonitrile], the IC50 on K-Ras G12D was less than 100 nM; at K-Ras G12S it was less than 100 nM; on K-Ras G12V, less than 100 nM; on K-Ras WT, less than 100 nM; in the assay on GP2D cells, less than 500 nM; with A549 cells, less than 5000 nM. Further, in the assay with SW620 cells, the IC50 was less than 5000 nM.
As for `C#Cc1c(F)ccc2cc(O)cc(-c3nc4c5c(nc(OC[C@@]67CCCN6C[C@H](F)C7)nc5c3F)N(C3CCCOC3)CCO4)c12` (stereo partly drawn) [Compound 661, 5-ethynyl-6-fluoro-4-(4-fluoro-2-(((2R,7aS)-2-fluorotetrahydro-1H-pyrrolizin-7a(5H)-yl)methoxy)-10-(tetrahydro-2H-pyran-3-yl)-9,10-dihydro-8H-7-oxa-1,3,6,10-tetraazacyclohepta[de]naphthalen-5-yl)naphthalen-2-ol], the IC50 is less than 100 nM at K-Ras G12D; less than 100 nM on K-Ras G12S; less than 100 nM on K-Ras G12V; less than 100 nM on K-Ras WT; less than 500 nM in the assay with GP2D cells; less than 5000 nM in the assay with A549 cells. Besides, the IC50 in the assay with SW620 cells is less than 5000 nM.
Consider `C[C@H]1CN(CCC(F)F)c2nc(OC[C@@]34CCCN3C[C@H](F)C4)nc3c(F)c(-c4ccc(F)c5sc(N)c(C#N)c45)c(Cl)c(c23)O1` [Compound 664, 2-amino-4-((6S)-8-chloro-4-(3,3-difluoropropyl)-10-fluoro-2-(((2R,7aS)-2-fluorotetrahydro-1H-pyrrolizin-7a(5H)-yl)methoxy)-6-methyl-5,6-dihydro-4H-[1,4]oxazepino[5,6,7-de]quinazolin-9-yl)-7-fluorobenzo[b]thiophene-3-carbonitrile], for which the IC50 at K-Ras G12D is less than 100 nM; on K-Ras G12S, less than 100 nM; at K-Ras G12V, less than 100 nM; on K-Ras WT, less than 100 nM; with GP2D cells it was less than 500 nM; with A549 cells, less than 5000 nM. In addition, in the assay on SW620 cells, the IC50 was less than 5000 nM.
As to `C[C@H]1CN(C2CCN(C(=O)C(F)F)C2)c2nc(OC[C@@]34CCCN3C[C@H](F)C4)nc3c(F)c(-c4ccc(F)c5sc(N)c(C#N)c45)c(Cl)c(c23)O1` (stereo partly drawn) [Compound 665, 2-amino-4-((6S)-8-chloro-4-(1-(2,2-difluoroacetyl)pyrrolidin-3-yl)-10-fluoro-2-(((2R,7aS)-2-fluorotetrahydro-1H-pyrrolizin-7a(5H)-yl)methoxy)-6-methyl-5,6-dihydro-4H-[1,4]oxazepino[5,6,7-de]quinazolin-9-yl)-7-fluorobenzo[b]thiophene-3-carbonitrile], the IC50 at K-Ras G12D was less than 100 nM; on K-Ras G12S it was less than 100 nM; on K-Ras G12V it was less than 100 nM; on K-Ras WT it was less than 100 nM; with GP2D cells, less than 500 nM; with A549 cells, less than 5000 nM. In addition, in the assay with SW620 cells, the IC50 is less than 5000 nM.
On to `N#Cc1c(N)sc2c(F)ccc(-c3c(Cl)c4c5c(nc(OC[C@@]67CCCN6C[C@H](F)C7)nc5c3F)N(CC3(O)CCC3)CCO4)c12` [Compound 667, 2-amino-4-(8-chloro-10-fluoro-2-(((2R,7aS)-2-fluorotetrahydro-1H-pyrrolizin-7a(5H)-yl)methoxy)-4-((1-hydroxycyclobutyl)methyl)-5,6-dihydro-4H-[1,4]oxazepino[5,6,7-de]quinazolin-9-yl)-7-fluorobenzo[b]thiophene-3-carbonitrile], for which the IC50 on K-Ras G12D is less than 100 nM; at K-Ras G12S, less than 100 nM; at K-Ras G12V, less than 100 nM; on K-Ras WT it was less than 100 nM; in the assay with GP2D cells, less than 500 nM; with A549 cells, less than 5000 nM. In addition, the half-maximal inhibitory concentration (IC50) in the assay with SW620 cells is less than 5000 nM.
